Patent US20220265646A1, “PIEZO AGONISTS FOR PREVENTING OR REVERTING ABNORMAL AMYLOID DEPOSITION” (ITÄ-SUOMEN YLIOPISTO, priority 2019, published 2022)

Experiments:
[1] = test system: 5xFAD transgenic mice modeling Alzheimer's disease; assay: 5xFAD transgenic mice, intraventricular cannula infusion, immunohistochemistry for Iba1 and Aβ (WO2); type: in vivo, mouse; details: 5xFAD mice, treated for 2 weeks
Description: To evaluate the effect of microglial Piezo1 Rs mechanosensor in vivo the present inventors used 5-month-old transgenic SXFAD male mice (Jackson Laboratories, Bar Harbor, Me., US) which were randomly divided into 3 groups. 5xFAD mice express human APP and PSEN1 transgenes with a total of five AD-linked mutations: the Swedish (K670N/M671L), Florida (1716V), and London (V7171) mutations in APP, and the M146L and L286V mutations in Presenilin-1 (PSEN1). These widely used mice recapitulate many AD-related phenotypes and have a relatively early and aggressive presentation. Amyloid plaques, accompanied by gliosis, are seen in mice as young as two months of age. Amyloid pathology is more severe in females than in males. Neuron loss occurs in multiple brain regions, beginning at about 5 months in the areas with the most pronounced amyloidosis. Mice display a range of cognitive and motor deficits. The animals were implanted with the intraventricular cannulas. Briefly, surgical anesthesia was induced using 5% isoflurane and maintained with 1.8% isoflurane (in 30% 02/70% N20). The temperature of the animals was maintained at 37±0.5° C. using a thermostatically controlled heating blanket with a rectal probe (Pan Lab, Harvard Apparatus). After the skull was exposed a small hole approximately 1 mm in diameter was drilled into the left hemisphere of the skull using following coordinates: m/l (medial/lateral) +1.1 mm, a/p (anterior/posterior) −0.3 mm, d/v (dorsal/ventral) −2.0 mm. […]
Brain sample preparation and Immunohistochemistry. […] Next, Aβ deposits and microglial were detected. […] For quantification of Aβ and Iba1 immunoreactivities, the stained sections were imaged using 10× magnification in Zeiss Axio ImagerM.2 microscope equipped with Axiocam 506 mono CCD camera (Carl Zeiss, Oberkochen) running ZEN software (Carl Zeiss) for tailing and stitching of the images. Cortical and hippocampal Aβ and Iba1 immunoreactivities were quantified from 6 stained sections at 400 μm intervals per animal using MatLab code (MathWorks, MatLab 2017b). […]

[2] = test system: primary cortical neurons; assay: Measurement of neurite outgrowth in primary cortical neurons; type: cell-based, mouse; details: 5 μM Yoda1, imaging over 150 hours, versus vehicle
Procedure: Measurement of neurite outgrowth in primary cortical neurons. Primary cortical neuron cultures were prepared from mouse embryos of embryonic day 15. The cortices were dissected, and tissue dissociated with 0.0125% trypsin (for 15 min at 37° C., Sigma-Aldrich, St. Louis, Mo., USA). After trypsin inactivation and washing the cells were counted and plated on 48-well-plates (coated with poly-D-lysine, Sigma-Aldrich, St. Louis, Mo., USA) at a density of 125 000 cells/well or on 6-well-plates at a density of 1.8 million cells/well in Neurobasal media supplemented with 2% B27 and 500 μM L-glutamine (all ThermoFisher Scientific, Waltham, Mass., USA) and 10 μg/ml of gentamicin (Sigma Aldrich, St. Louis, Mo., USA). On day 3 or 5 in vitro (DIV) the neurons were fed by changing 50% of media. The neurons were placed in IncuCyte® S3 Live Cell Analysis System (Essen
BioScience Ltd., Hertfordshire, UK) on DIV 0 and treated with 5 μM Yoda1 (Tocris, Bio-Techne Ltd., Abingdon, Oxfordshire, UK) once on DIV 0 or daily until DIV 7, and images were taken every 8 hours for the analysis of neurite length and branch points.

[3] = 0.05 μg/μl, 5 μl infusion once a day

Clc1cccc(Cl)c1CSc1nnc(-c2cnccn2)s1 [Yoda1]
microglial accumulation near the Aβ deposits [1]: enhanced microglial accumulation | Iba1 immunoreactivity in cortex and hippocampus [1, 3]: significantly increased | extent of brain Aβ load in cortex and hippocampi (WO2 staining) [1, 3]: significant reduction | branch points of neurites [2]: more branching points | neurite length [2]: extended neurite length
